In US10329294B2, “Pyrazolopyrimidine inhibitors of IRAK4 activity” (MERCK SHARP & DOHME CORP., priority 2015, dated 2019):
Structures can show the parent of a compound that is named as a salt.

target: IRAK4 (Homo sapiens (Human), UniProt Q9NWZ3); experiment: IRAK4 Kinase Assay; format: biochemical; settings: IMAP fluorescence polarization, 0.5 nM GST tagged IRAK4, 100 μM ATP, 30 minutes at 25° C.; read-out: IRAK4 IC50
Sequence (Q9NWZ3 whole entry): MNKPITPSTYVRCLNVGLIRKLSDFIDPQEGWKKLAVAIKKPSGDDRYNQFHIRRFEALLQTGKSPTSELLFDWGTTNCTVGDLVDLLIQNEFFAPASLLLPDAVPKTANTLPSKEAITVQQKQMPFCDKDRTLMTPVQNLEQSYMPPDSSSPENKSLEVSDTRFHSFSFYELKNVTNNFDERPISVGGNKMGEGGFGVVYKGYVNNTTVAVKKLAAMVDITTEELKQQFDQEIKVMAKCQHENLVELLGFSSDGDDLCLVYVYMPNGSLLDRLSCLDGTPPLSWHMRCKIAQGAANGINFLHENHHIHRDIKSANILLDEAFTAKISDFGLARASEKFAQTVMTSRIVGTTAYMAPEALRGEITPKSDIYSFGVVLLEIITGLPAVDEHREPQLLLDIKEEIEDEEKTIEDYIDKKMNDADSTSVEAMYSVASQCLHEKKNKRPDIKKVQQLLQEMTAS

Row | SMILES | IC50
1 | Cn1cc(NC(=O)c2cnn3ccc(N[C@H]4CNCC(F)(F)C4)nc23)c(C(F)(F)F)n1 (single isomer, unassigned) [Example 219, 5-{[(3S)- or (3R)-5,5-difluoropiperidin-3-yl]amino}-N-[1-methyl-3-(trifluoromethyl)-1H-pyrazol-4-yl]pyrazolo[1,5-a]pyrimidine-3-carboxamide] | 7 nM
2 | Cn1cc(NC(=O)c2cnn3ccc(N4CCN(CC5CC5)CC4)nc23)c(C(F)(F)F)n1 [Example 6, 5-[4-(cyclopropylmethyl)piperazin-1-yl]-N-[1-methyl-3-(trifluoromethyl)-1H-pyrazol-4-yl]pyrazolo[1,5-a]pyrimidine-3-carboxamide] | 681 nM
3 | Cn1cc(NC(=O)c2cnn3ccc(N[C@H]4CC(F)(F)CC[C@H]4N)nc23)c(C(F)F)n1 (single isomer, unassigned) [Example 210, 5-{[(1S,2R)- or (1R,2S)-2-amino-5,5-difluorocyclohexyl]amino}-N-[3-(difluoromethyl)-1-methyl-1H-pyrazol-4-yl]pyrazolo[1,5-a]pyrimidine-3-carboxamide] | 1 nM
4 | N[C@@H]1[C@H](Nc2ccn3ncc(C(=O)Nc4cn(CC(F)(F)F)nc4C(F)(F)F)c3n2)CCCC1(F)F [Example 69, 5-{[(1R,2R)-2-amino-3,3-difluorocyclohexyl]amino}-N-[1-(2,2,2-trifluoroethyl)-3-(trifluoromethyl)-1H-pyrazol-4-yl]pyrazolo[1,5-a]pyrimidine-3-carboxamide trifluoroacetate] | 927 nM
5 | N#Cc1ccccc1NC(=O)c1cnn2ccc(N3CCNCC4(CC4)C3)nc12 [Example 267, N-(2-cyanophenyl)-5-(5,8-diazaspiro[2.6]non-5-yl)pyrazolo[1,5-a]pyrimidine-3-carboxamide trifluoroacetate] | 351 nM
6 | N#Cc1cscc1NC(=O)c1cnn2ccc(N3CCCNCC3)nc12 [Example 141, N-(4-cyanothiophen-3-yl)-5-(1,4-diazepan-1-yl)pyrazolo[1,5-a]pyrimidine-3-carboxamide trifluoroacetate] | 359 nM
7 | Cn1cc(NC(=O)c2cnn3ccc(N[C@@H]4CNC[C@H](F)C4)nc23)c(C(F)(F)F)n1 [Example 254, 5-(((3S,5R)-5-Fluoropiperidin-3-yl)amino)-N-(1-methyl-3-(trifluoromethyl)-1H-pyrazol-4-yl)pyrazolo[1,5-a]pyrimidine-3-carboxamide] | 876 nM
8 | CC(O)c1cc(NC(=O)c2cnn3ccc(N[C@@H]4CCCC[C@@H]4N)nc23)cs1 (stereo partly drawn) [Example 276, 5-(((1R,2S)-2-Aminocyclohexyl)amino)-N-(5-(1-hydroxyethyl)thiophen-3-yl)pyrazolo[1,5-a]pyrimidine-3-carboxamide] | 64 nM
9 | O=C(Nc1cscc1Cl)c1cnn2ccc(N3C[C@@H]4CC[C@H]3CN4)nc12 (single isomer, unassigned) [Example 169, N-(4-chlorothiophen-3-yl)-5-[(1S,4S)- or (1R,4R)-2,5-diazabicyclo[2.2.2]oct-2-yl]pyrazolo[1,5-a]pyrimidine-3-carboxamide trifluoroacetate] | 150 nM
10 | CC(C)(C)n1cc(NC(=O)c2cnn3ccc(N4CC5CCC4CN5)nc23)c(C(F)(F)F)n1 (centres unmarked) [Example 50, N-[1-tert-butyl-3-(trifluoromethyl)-1H-pyrazol-4-yl]-5-(2,5-diazabicyclo[2.2.2]oct-2-yl)pyrazolo[1,5-a]pyrimidine-3-carboxamide trifluoroacetate] | 90 nM
11 | O=C(Nc1ccccc1C(F)F)c1cnn2ccc(N3CCCNCC3)nc12 [Example 130, 5-(1,4-diazepan-1-yl)-N-[2-(difluoromethyl)phenyl] pyrazolo[1,5-a]pyrimidine-3-carboxamide] | 8810 nM
12 | O=C(Nc1ccsc1Cl)c1cnn2ccc(N3CC4CCC3CN4)nc12 (centres unmarked) [Example 134, N-(2-chlorothiophen-3-yl)-5-(2,5-diazabicyclo[2.2.2]oct-2-yl)pyrazolo[1,5-a]pyrimidine-3-carboxamide trifluoroacetate] | 306 nM
13 | Cn1cc(NC(=O)c2cnn3ccc(N4CC5CCC4CCN5)nc23)c(C(F)(F)F)n1 (centres unmarked) [Example 73, 5-(2,6-diazabicyclo[3.2.2]non-6-yl)-N-[1-methyl-3-(trifluoromethyl)-1H-pyrazol-4-yl]pyrazolo[1,5-a]pyrimidine-3-carboxamide trifluoroacetate] | 144 nM
14 | N#Cc1ccccc1NC(=O)c1cnn2ccc(N3CCC[C@@H](N)C3)nc12 [Example 269, 5-[(3R)-3-aminopiperidin-1-yl]-N-(2-cyanophenyl)pyrazolo[1,5-a]pyrimidine-3-carboxamide trifluoroacetate] | 143 nM
15 | N[C@@H]1[C@H](Nc2ccn3ncc(C(=O)Nc4ccccc4Br)c3n2)CCCC1(F)F [Example 108, 5-{[(1R,2R)-2-amino-3,3-difluorocyclohexyl]amino}-N-(2-bromophenyl)pyrazolo[1,5-a]pyrimidine-3-carboxamide trifluoroacetate] | 1890 nM
16 | CCN1CCCN(c2ccn3ncc(C(=O)Nc4cn(C)nc4C(F)(F)F)c3n2)CC1 [Example 10, 5-(4-ethyl-1,4-diazepan-1-yl)-N-[1-methyl-3-(trifluoromethyl)-1H-pyrazol-4-yl]pyrazolo[1,5-a]pyrimidine-3-carboxamide] | 1100 nM

The remaining compounds from weak to strong by IC50, led by results:

Row | IC50 | SMILES
17 | 50 nM | Cn1cc(NC(=O)c2cnn3ccc(N4C[C@@H]5CC[C@H]4CN5)nc23)c(Br)n1 (single isomer, unassigned) [Example 164, N-(3-bromo-1-methyl-1H-pyrazol-4-yl)-5-[(1S,4S)- or (1R,4R)-2,5-diazabicyclo[2.2.2]oct-2-yl]pyrazolo[1,5-a]pyrimidine-3-carboxamide trifluoroacetate]
18 | 41 nM | Cn1cc(NC(=O)c2cnn3ccc(N4C[C@@H]5CC[C@H]4CN5)nc23)c(C#N)n1 (single isomer, unassigned) [Example 156, N-(3-cyano-1-methyl-1H-pyrazol-4-yl)-5-[(1S,4S)- or (1R,4R)-2,5-diazabicyclo[2.2.2]oct-2-yl]pyrazolo[1,5-a]pyrimidine-3-carboxamide trifluoroacetate]
19 | 36 nM | CC(C)n1cc(NC(=O)c2cnn3ccc(N[C@@H]4CCCC(F)(F)[C@@H]4N)nc23)c(C(F)F)n1 [Example 200, 5-{[(1R,2R)-2-amino-3,3-difluorocyclohexyl]amino}-N-[3-(difluoromethyl)-1-(1-methylethyl)-1H-pyrazol-4-yl]pyrazolo[1,5-a]pyrimidine-3-carboxamide trifluoroacetate]
20 | 33 nM | Cn1cc(NC(=O)c2cnn3ccc(N4CCCNCC45CC5)nc23)c(C(F)(F)F)n1 [Example 98, 5-(4,8-diazaspiro[2.6]non-4-yl)-N-[1-methyl-3-(trifluoromethyl)-1H-pyrazol-4-yl]pyrazolo[1,5-a]pyrimidine-3-carboxamide trifluoroacetate]
21 | 28 nM | Cn1cc(NC(=O)c2cnn3ccc(N4C[C@H]5CC[C@@H]4CN5)nc23)c(Cl)n1 (single isomer, unassigned) [Example 152, N-(3-chloro-1-methyl-1H-pyrazol-4-yl)-5-[(1S,4S)- or (1R,4R)-(2,5-diazabicyclo[2.2.2]oct-2-yl]pyrazolo[1,5-a]pyrimidine-3-carboxamide trifluoroacetate]
22 | 24 nM | CN[C@H]1CCCC[C@H]1Nc1ccn2ncc(C(=O)Nc3cn(C)nc3C(F)(F)F)c2n1 [Example 262, N-(1-Methyl-3-(trifluoromethyl)-1H-pyrazol-4-yl)-5-(((1R,2S)-2-(methylamino)cyclohexyl)amino)pyrazolo[1,5-a]pyrimidine-3-carboxamide]
23 | 19 nM | Cn1cc(NC(=O)c2cnn3ccc(N4C[C@H]5CC[C@@H]4CN5)nc23)c(C(F)(F)F)n1 (single isomer, unassigned) [Example 77, 5-[1S,4S)- or (1R,4R)-2,5-diazabicyclo[2.2.2]oct-2-yl]-N-[1-methyl-3-(trifluoromethyl)-1H-pyrazol-4-yl]pyrazolo[1,5-a]pyrimidine-3-carboxamide trifluoroacetate]
24 | 15 nM | Cn1ncc(NC(=O)c2cnn3ccc(N[C@@H]4CCCC[C@@H]4N)nc23)c1C(F)(F)F [Example 166, 5-{[(1R,2S)-2-aminocyclohexyl]amino}-N-[1-methyl-5-(trifluoromethyl)-1H-pyrazol-4-yl]pyrazolo[1,5-a]pyrimidine-3-carboxamide trifluoroacetate]
25 | 9 nM | N[C@@H]1CCCC[C@@H]1Nc1ccn2ncc(C(=O)Nc3cnn(-c4cccnc4)c3)c2n1 [Example 278, 5-{[(1S,2R)-2-aminocyclohexyl]amino}-N-(1-pyridin-3-yl-1H-pyrazol-4-yl)pyrazolo[1,5-a]pyrimidine-3-carboxamide trifluoroacetate]
26 | 4 nM | Cn1cc(NC(=O)c2cnn3ccc(N4CC[C@@H](F)[C@@H](N)C4)nc23)c(C(F)F)n1 (single isomer, unassigned) [Example 178, 5-[(3S,4R)- or (3R,4S)-3-amino-4-fluoropiperidin-1-yl]-N-[3-(difluoromethyl)-1-methyl-1H-pyrazol-4-yl]pyrazolo[1,5-a]pyrimidine-3-carboxamide trifluoroacetate]
27 | 0.8 nM | N[C@H]1CCCC[C@H]1Nc1ccn2ncc(C(=O)Nc3c[nH]nc3C(F)(F)F)c2n1 [Example 301, 5-{[(1R,2S)-2-aminocyclohexyl]amino}-N-[3-(trifluoromethyl)-1H-pyrazol-4-yl]pyrazolo[1,5-a]pyrimidine-3-carboxamide trifluoroacetate]
28 | 0.5 nM | Cn1cc(NC(=O)c2cnn3ccc(N[C@@H]4CCCNC4)nc23)c(C(F)F)n1 [Example 91, N-[3-(difluoromethyl)-1-methyl-1H-pyrazol-4-yl]-5-[(3R)-piperidin-3-ylamino]pyrazolo[1,5-a]pyrimidine-3-carboxamide trifluoroacetate]
29 | 0.3 nM | Cn1cc(NC(=O)c2cnn3ccc(N[C@@H]4CCCC[C@@H]4N)nc23)c(Br)n1 [Example 138, 5-{[(1R,2S)-2-aminocyclohexyl]amino}-N-(3-bromo-1-methyl-1H-pyrazol-4-yl)pyrazolo[1,5-a]pyrimidine-3-carboxamide trifluoroacetate]
